Each structure is given as a SMILES string.

Broadly, the IC50 is the concentration that inhibits the measured activity by half.

For the experiment, the system named is PC3 cells. In words: xCELLigence RTCA real-time cell invasion assay (CIM plate, Matrigel) on PC3 prostate cancer cells. It is filed as cell-based. The conditions noted are these: Homo sapiens, PC-3, compound 25 uM to 1 uM, cell index monitored for 72 hours, four-parameter dose-response curve, read-out: IC50, Effect of compounds on the invention on prostate cancer cells. The protocol: The media antibiotics and serum were purchased from Invitrogen (Life Technologies). PC3 cells were purchased from ATCC (Granville, NSW, Australia). PC3 cells were expanded in cell culture T75 flasks with vented cap and then preserved in low passage number. The medium used for PC3 cells was RPMI (GlutaMAX) supplemented with 10% FCS and 1% penicillin/streptomycin (culture media). The cells were maintained at 37° C. in a humidified 95% (v/v) air/5% (v/v) CO2 environment and were grown up to 80% confluence.
XCELLigence® real-time cell analysis (RTCA) instrument (ACEA Biosciences), 16-well ACEA CIM-Plates, 16-well ACEA E-Plat and assembly tool were purchased from ELITechGroup empowering IVD (Braeside, Australia). The Matrigel was purchased from Corning (Australia).
To measure cell invasion under compound treatment the upper chamber of the CIM plate was coated with 5% Matrigel diluted in SF RPMI (20 μl) and incubated in a 37° C. tissue culture incubator for four hours. Using the assembly tool to support the chambers the lower chamber was filled with (160 μl) of culture media containing the compound in specific concertation from 25 uM to 1 uM and two controls (DMSO 0.1% and ESFAM 4C 10 uM) (see the schematic in FIG. 1). Once the upper chamber was placed on the top of the lower chamber it was loaded with (40 μl) serum-free (SF) RPMI containing the compound as previously stated. After one hour calibration in 37° C., plates were placed into the xCELLigence station, and the base-line electric impedance was measured to confirm that all wells and connections were working properly. In case of connection problem, the software automatically informs the researcher about the nature of the problem in the message section. Subsequently cells were trypsinized and upon harvesting and counting they were diluted in SF RPMI to desired density (3×10^4) and seeded (100 μl) in the wells. After 30 minutes of incubation in room-temperature to allow cell attachment the plates were loaded in the xCELLigence RTCA DP machine. The cell invasion was monitored in real-time for the duration of 72 hours. […]
The xCELLigence system automatically monitored the electrical impedance value of each well and expressed as a cell index (CI) value for the duration of 72 hours. The data for treatments was automatically grouped as the mean±standard deviation. The software version used in these experiments is 1.2.1. The electronic record of the experimental data is automatically saved in file that cannot be altered or changed by the researcher.
Statistical analysis was performed using Microsoft® Office EXCEL and GraphPad Prism 7. The IC50 was calculated from the four-parameter dose-response curve (log(inhibitor) vs. response-variable slopes). Where the row-data was inserted in GraphPad Prism 7 (Dose response x-log(dose)) and analysed for XY nonlinear regression (curve fit), dose response-inhibition, log(inhibitor) vs response variable slope (four parameters). For the IC90 calculation the log(IC50)=log(IC90)-(1/HillSlope)*log(9) equation was used in EXCEL based on the raw data extracted from xCELLigence system and the dose-response curve.
On to `CC(C)Oc1cccc(NC(=O)c2cc3nc(N4Cc5ccccc5C4)cc(-c4cn[nH]c4)n3n2)c1` [Compound 28, 5-(isoindolin-2-yl)-N-(3-isopropoxyphenyl)-7-(1H-pyrazol-4-yl)pyrazolo[1,5-a]pyrimidine-2-carboxamide], for which the IC50 was determined as 2.03 µM.

Regarding `CN(Cc1ccccc1)c1cc(-c2cn[nH]c2)n2nc(C(=O)Nc3ccc(Cl)cc3)cc2n1` [Compound 29, 5-(benzyl(methyl)amino)-N-(4-chlorophenyl)-7-(1H-pyrazol-4-yl)pyrazolo[1,5-a]pyrimidine-2-carboxamide], the concentration for half-maximal inhibition (IC50) came to 3.58 µM.

For the compound `CN(Cc1ccccc1)c1cc(-c2cn[nH]c2)n2nc(C(=O)Nc3cccc(Cl)c3)cc2n1` [Compound 30, 5-(benzyl(methyl)amino)-N-(3-chlorophenyl)-7-(1H-pyrazol-4-yl)pyrazolo[1,5-a]pyrimidine-2-carboxamide], the 50% inhibitory concentration (IC50) is 1.61 µM.

With `CN(Cc1ccccc1)c1cc(-c2cn[nH]c2)n2nc(C(=O)Nc3ccccc3Cl)cc2n1` [Compound 31, 5-(benzyl(methyl)amino)-N-(2-chlorophenyl)-7-(1H-pyrazol-4-yl)pyrazolo[1,5-a]pyrimidine-2-carboxamide], the IC50 was found to be 2.21 µM.

Turning to `CN(Cc1ccccc1)c1cc(-c2cn[nH]c2)n2nc(C(=O)Nc3ccc(C(F)(F)F)cc3)cc2n1` [Compound 32, 5-(benzyl(methyl)amino)-7-(1H-pyrazol-4-yl)-N-(4-(trifluoromethyl)phenyl)pyrazolo[1,5-a]pyrimidine-2-carboxamide], the IC50 worked out at 3.04 µM.

Consider `CN(Cc1ccccc1)c1cc(-c2cn[nH]c2)n2nc(C(=O)Nc3cccc(C(F)(F)F)c3)cc2n1` [Compound 33, 5-(benzyl(methyl)amino)-7-(1H-pyrazol-4-yl)-N-(3-(trifluoromethyl)phenyl)pyrazolo[1,5-a]pyrimidine-2-carboxamide], for which the IC50 is 2.59 µM.

For `CN(Cc1ccccc1)c1cc(-c2cn[nH]c2)n2nc(C(=O)Nc3ccccc3C(F)(F)F)cc2n1` [Compound 34, 5-(benzyl(methyl)amino)-7-(1H-pyrazol-4-yl)-N-(2-(trifluoromethyl)phenyl)pyrazolo[1,5-a]pyrimidine-2-carboxamide], the IC50 came out at 8.97 µM.

Take `CN(Cc1ccccc1)c1cc(-c2cn[nH]c2)n2nc(C(=O)Nc3ccc(F)cc3)cc2n1` [Compound 35, 5-(benzyl(methyl)amino)-N-(4-fluorophenyl)-7-(1H-pyrazol-4-yl)pyrazolo[1,5-a]pyrimidine-2-carboxamide]: the IC50 is 1.4 µM.

Turning to `CN(Cc1ccccc1)c1cc(-c2cn[nH]c2)n2nc(C(=O)Nc3cccc(F)c3)cc2n1` [Compound 36, 5-(benzyl(methyl)amino)-N-(3-fluorophenyl)-7-(1H-pyrazol-4-yl)pyrazolo[1,5-a]pyrimidine-2-carboxamide], the IC50 came out at 1.47 µM.

Consider `CN(Cc1ccccc1)c1cc(-c2cn[nH]c2)n2nc(C(=O)Nc3ccccc3F)cc2n1` [Compound 37, 5-(benzyl(methyl)amino)-N-(2-fluorophenyl)-7-(1H-pyrazol-4-yl)pyrazolo[1,5-a]pyrimidine-2-carboxamide], for which the IC50 was 3.1 µM.

For `COc1ccc(CN(C)c2cc(-c3cn[nH]c3)n3nc(C(=O)Nc4ccc(Cl)cc4)cc3n2)cc1` [Compound 38, N-(4-chlorophenyl)-5-((4-methoxybenzyl)(methyl)amino)-7-(1H-pyrazol-4-yl)pyrazolo[1,5-a]pyrimidine-2-carboxamide], the concentration for half-maximal inhibition (IC50) amounted to 4.36 µM.

In the case of `COc1cccc(CN(C)c2cc(-c3cn[nH]c3)n3nc(C(=O)Nc4ccc(Cl)cc4)cc3n2)c1` [Compound 39, N-(4-chlorophenyl)-5-((3-methoxybenzyl)(methyl)amino)-7-(1H-pyrazol-4-yl)pyrazolo[1,5-a]pyrimidine-2-carboxamide], the IC50 was 8.46 µM.

In the case of `COc1ccccc1CN(C)c1cc(-c2cn[nH]c2)n2nc(C(=O)Nc3ccc(Cl)cc3)cc2n1` [Compound 40, N-(4-chlorophenyl)-5-((2-methoxybenzyl)(methyl)amino)-7-(1H-pyrazol-4-yl)pyrazolo[1,5-a]pyrimidine-2-carboxamide], the IC50 was 3.96 µM.

For `CN(Cc1ccc(C(F)(F)F)cc1)c1cc(-c2cn[nH]c2)n2nc(C(=O)Nc3ccc(Cl)cc3)cc2n1` [Compound 41, N-(4-chlorophenyl)-5-(methyl(4-(trifluoromethyl)benzyl)amino)-7-(1H-pyrazol-4-yl)pyrazolo[1,5-a]pyrimidine-2-carboxamide], the IC50 is 9.86 µM.

Consider `CN(Cc1cccc(C(F)(F)F)c1)c1cc(-c2cn[nH]c2)n2nc(C(=O)Nc3ccc(Cl)cc3)cc2n1` [Compound 42, N-(4-chlorophenyl)-5-(methyl(3-(trifluoromethyl)benzyl)amino)-7-(1H-pyrazol-4-yl)pyrazolo[1,5-a]pyrimidine-2-carboxamide], for which the IC50 came to 2.86 µM.

Take `CN(Cc1ccccc1C(F)(F)F)c1cc(-c2cn[nH]c2)n2nc(C(=O)Nc3ccc(Cl)cc3)cc2n1` [Compound 43, N-(4-chlorophenyl)-5-(methyl(2-(trifluoromethyl)benzyl)amino)-7-(1H-pyrazol-4-yl)pyrazolo[1,5-a]pyrimidine-2-carboxamide]: the IC50 came to 6.09 µM.

In the case of `CN(Cc1ccc(Cl)cc1)c1cc(-c2cn[nH]c2)n2nc(C(=O)Nc3ccc(Cl)cc3)cc2n1` [Compound 44, 5-((4-chlorobenzyl)(methyl)amino)-N-(4-chlorophenyl)-7-(1H-pyrazol-4-yl)pyrazolo[1,5-a]pyrimidine-2-carboxamide], the IC50 turned out to be 12.2 µM.

As for `CN(Cc1cccc(Cl)c1)c1cc(-c2cn[nH]c2)n2nc(C(=O)Nc3ccc(Cl)cc3)cc2n1` [Compound 45, 5-((3-chlorobenzyl)(methyl)amino)-N-(4-chlorophenyl)-7-(1H-pyrazol-4-yl)pyrazolo[1,5-a]pyrimidine-2-carboxamide], the IC50 is 10.8 µM.

As to `CN(Cc1ccccc1Cl)c1cc(-c2cn[nH]c2)n2nc(C(=O)Nc3ccc(Cl)cc3)cc2n1` [Compound 46, 5-((2-chlorobenzyl)(methyl)amino)-N-(4-chlorophenyl)-7-(1H-pyrazol-4-yl)pyrazolo[1,5-a]pyrimidine-2-carboxamide], the IC50 is 7 µM.

As to `O=C(Nc1cccc(N2CCOCC2)c1)c1cc2nc(N3Cc4ccccc4C3)cc(-c3cn[nH]c3)n2n1` [Compound 47, 5-(isoindolin-2-yl)-N-(3-morpholinophenyl)-7-(1H-pyrazol-4-yl)pyrazolo[1,5-a]pyrimidine-2-carboxamide], the IC50 is 6.18 µM.

On to `CN1CCN(c2cccc(NC(=O)c3cc4nc(N5Cc6ccccc6C5)cc(-c5cn[nH]c5)n4n3)c2)CC1` [Compound 48, 5-(isoindolin-2-yl)-N-(3-(4-methylpiperazin-1-yl)phenyl)-7-(1H-pyrazol-4-yl)pyrazolo[1,5-a]pyrimidine-2-carboxamide], for which the IC50 was determined as 2.77 µM.

With `CC(=O)N1CCN(c2cccc(NC(=O)c3cc4nc(N5Cc6ccccc6C5)cc(-c5cn[nH]c5)n4n3)c2)CC1` [Compound 49, N-(3-(4-acetylpiperazin-1-yl)phenyl)-5-(isoindolin-2-yl)-7-(1H-pyrazol-4-yl)pyrazolo[1,5-a]pyrimidine-2-carboxamide], the concentration for half-maximal inhibition (IC50) came to 5.85 µM.

For `O=C(Nc1cccc(OC2CCC2)c1)c1cc2nc(N3Cc4ccccc4C3)cc(-c3cn[nH]c3)n2n1` [Compound 50, N-(3-cyclobutoxyphenyl)-5-(isoindolin-2-yl)-7-(1H-pyrazol-4-yl)pyrazolo[1,5-a]pyrimidine-2-carboxamide], the IC50 was 1.46 µM.

Turning to `COc1cc(NC(=O)c2cc3nc(N4Cc5ccccc5C4)cc(-c4cn[nH]c4)n3n2)cc(OC)c1` [Compound 51, N-(3,5-dimethoxyphenyl)-5-(isoindolin-2-yl)-7-(1H-pyrazol-4-yl)pyrazolo[1,5-a]pyrimidine-2-carboxamide], the IC50 worked out at 3.55 µM.

Take `COc1cc(Cl)cc(NC(=O)c2cc3nc(N4Cc5ccccc5C4)cc(-c4cn[nH]c4)n3n2)c1` [Compound 52, N-(3-chloro-5-methoxyphenyl)-5-(isoindolin-2-yl)-7-(1H-pyrazol-4-yl)pyrazolo[1,5-a]pyrimidine-2-carboxamide]: the IC50 worked out at 5.52 µM.

Values taken from patent publication US12215112B2, “CD151 inhibitors” (ESFAM BIOTECH PTY LTD, priority 2020, dated 2025).
